According to ChEMBL document CHEMBL2034926, “Design, synthesis, and biological action of 20R-hydroxyvitamin D3” (J Med Chem, 2012):
Active and inactive are the calls of the source. The calls are words filed in the database; no cut-off is given here.

Tests used:
HaCaT = test: Inhibition of colony formation of human HaCaT cells; type: functional, cell-based
[1] = Antiproliferative activity against NHEK cells incubated for 24 hrs by [3H]thymidine incorporation assay; type: functional, cell-based; conditions: Homo sapiens
HEK293 = test: Stimulation of cell proliferation of NHEK cells at 0.1 nM incubated for 24 hrs by [3H]thymidine incorporation assay; type: functional, cell-based; conditions: Homo sapiens
[2] = target: T1, CYP11A1 (cholesterol side-chain cleavage enzyme, mitochondrial) (Bos taurus, UniProt P00189); test: Drug metabolism assessed as bovine CYP11A1-mediated compound metabolism after 2 mins incubation using compound loaded phospholipid vesicle by reverse phase HPLC; type: ADME; conditions: cattle, bovine CYP11A1 with compound-loaded phospholipid vesicles; read-out: Drug metabolism
T1 sequence (P00189 whole entry): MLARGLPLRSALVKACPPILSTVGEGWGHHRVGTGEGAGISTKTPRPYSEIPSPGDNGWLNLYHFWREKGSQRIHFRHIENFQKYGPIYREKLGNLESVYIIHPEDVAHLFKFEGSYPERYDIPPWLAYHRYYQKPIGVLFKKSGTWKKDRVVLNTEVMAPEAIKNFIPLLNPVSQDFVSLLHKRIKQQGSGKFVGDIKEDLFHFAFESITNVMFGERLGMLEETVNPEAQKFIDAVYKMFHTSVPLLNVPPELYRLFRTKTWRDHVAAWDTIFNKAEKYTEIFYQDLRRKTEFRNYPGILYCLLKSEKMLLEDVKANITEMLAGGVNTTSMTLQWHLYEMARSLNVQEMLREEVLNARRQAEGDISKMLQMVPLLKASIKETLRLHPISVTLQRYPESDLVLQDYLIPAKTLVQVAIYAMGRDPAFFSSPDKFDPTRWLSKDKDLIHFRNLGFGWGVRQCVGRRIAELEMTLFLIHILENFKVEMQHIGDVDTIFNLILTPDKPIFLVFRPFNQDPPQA

[3] = Antiproliferative activity against NHEK cells assessed as cell proliferation incubated for 24 hrs by [3H]thymidine incorporation assay relative to untreated control

| metabolised at 2 min [2] | SMILES | inhibition (HaCaT) | EC50 [1] | Activity (HEK293) | level, % of control [3] |
| --- | --- | --- | --- | --- | --- |
| – | C=C1/C(=C\C=C2/CCC[C@]3(C)[C@@H]([C@H](C)CCCC(C)(C)O)CC[C@@H]23)C[C@@H](O)C[C@@H]1O | Active | – | – | – |
| – | C=C1CC[C@H](O)C/C1=C/C=C1\CCC[C@]2(C)[C@@H]([C@H](C)CCCC(C)(C)O)CC[C@@H]12 | inactive | – | – | – |
| 58% | C=C1CC[C@H](O)C/C1=C/C=C1\CCC[C@@]2(C)[C@H]1CC[C@@H]2[C@](C)(O)CCCC(C)C | – | 4.09 nM | Active | <50% |
| 13% | C=C1CC[C@H](O)C/C1=C/C=C1\CCC[C@@]2(C)[C@H]1CC[C@@H]2[C@@](C)(O)CCCC(C)C | Active | 0.728 nM | – | <50% |
